Converted amounts (≈) assume the structure as drawn. Counter-ions that a name gives are not always drawn. Like-named read-outs stand apart in the source and are kept apart here. Marks after values point to notes of the source that are not given here.
Assays:
[1] = test system: AGEs cross-linking; assay: N-acetyl-glycyl-lysine-methyl ester D-ribose assay on AGE cross-linking; type: biochemical; conditions: for IC50: GK peptide-D-ribose, 37 °C, 72 h
Experimental: (§1) This test was used to evaluate the ability of samples to inhibit cross-linking of the GK peptide in the presence of D-ribose using the method described by Hwang et al. The GK peptide (26.7 mg/mL) was incubated with D-ribose (200 mg/mL) in sodium phosphate buffer (0.5 M, pH 7.4) containing 0.2 g/L NaN3 under sterile conditions at 37 °C for 72 h. […] All reagents and samples were sterilized by filtration through […] membrane filters. The fluorescence intensity was measured at an excitation wavelength of 355 nm and an emission wavelength of 460 nm with a Luminescence spectrometer LS50B (Perkin-Elmer Ltd., Buckinghamshire, England). AG was used as a positive control.

[2] = Water solubility analysis; type: physicochemical; conditions: for solubility at 1 h: thermodynamic from solid, distilled water, 37 °C, sonication 1 h
Experimental: CS and derivatives were dissolved in distilled water and incubated at 37 °C with sonication for 1 h to maximize solubility. After sonication, undissolved samples were eliminated by centrifugation (7000× g, 37 °C, 5 min). The supernatants were diluted in methanol and filtered through a 0.45 μm disposable syringe filter (Advantec, Dublin, CA, USA) to analyze the concentration of the samples using HPLC analysis.

[3] = test system: AGE formation; assay: Bovine serum albumin-methylglyoxal assay on AGE formation; type: biochemical; conditions: for IC50: BSA-methylglyoxal, 37 °C, 48 h
Experimental: Bovine serum albumin (50 mg/mL) was incubated at 37 °C for 48 h with methylglyoxal (100 mM) in sodium phosphate buffer (0.1 M, pH 7.4) containing 0.2 g/L NaN3 in the presence of various concentrations of the compounds (including a control).
as §1

[4] = test system: Amadori compound formation; assay: Hemoglobin-δ-gluconolactone assay of Amadori compound formation; type: biochemical; conditions: for IC50: early stage of AGE formation; for inhibitory activity on Amadori compound formation, fold higher than positive control AG: relative to Aminoguanidine hydrochloride (IC50 = 109.74 μM)
[5] = MGO trapping capacity by HPLC (kinetic study of MGO-conjugated adducts)
Experimental: […] The incubated mixture was filtered using a Microcon YM-10 centrifugal filter unit by centrifugation at 5167× g for 30 min at 4 °C. The filtrate was subsequently analyzed by high-performance liquid chromatography (HPLC) using the methods mentioned in the HPLC analysis section. The samples were then stored at −80 °C for further use.
HPLC was performed on an Agilent1100 series system equipped with a diode-array detector (DAD; Agilent, Sunnyvale, CA, USA) consisting of a vacuum degasser (G1322A), a quaternary pump (G1311A), an auto-sampler (G1313A), a thermostat column compartment (G1316A), and a DAD (G1315B). […] Sample injection volume was 10 μL. The samples were eluted with acidified water (0.1% trifluoroacetic acid, A) and MeOH (B) at a flow rate of 0.7 mL/min. The optimized gradient chromatographic conditions were 5–100% B at 0–40 min; 100–5% B at 40–42 min; and isocratic 5% B at 42–45 min. The detector monitored the eluent at a wavelength of 280 nm.

[6] = cited from earlier work
[7] = chrysin:MGO 1:0.1, incubation 1 h
[8] = chrysin:MGO 1:0.1, incubation 3 h
[9] = chrysin:MGO 1:0.1, incubation 6 h
[10] = chrysin:MGO 1:0.1, incubation 12 h
[11] = chrysin:MGO 1:0.1, incubation 36 h
[12] = chrysin:MGO 1:0.1, incubation 48 h
[13] = chrysin:MGO 1:0.5, incubation 1 h
[14] = chrysin:MGO 1:0.5, incubation 3 h
[15] = chrysin:MGO 1:0.5, incubation 6 h
[16] = chrysin:MGO 1:0.5, incubation 12 h
[17] = chrysin:MGO 1:0.5, incubation 36 h
[18] = chrysin:MGO 1:0.5, incubation 48 h
[19] = chrysin:MGO 1:1, incubation 1 h
[20] = chrysin:MGO 1:1, incubation 3 h
[21] = chrysin:MGO 1:1, incubation 6 h
[22] = chrysin:MGO 1:1, incubation 12 h
[23] = chrysin:MGO 1:1, incubation 36 h
[24] = chrysin:MGO 1:1, incubation 48 h
[25] = chrysin:MGO 1:5, incubation 1 h
[26] = chrysin:MGO 1:5, incubation 3 h
[27] = chrysin:MGO 1:5, incubation 6 h
[28] = chrysin:MGO 1:5, incubation 12 h
[29] = chrysin:MGO 1:5, incubation 36 h
[30] = chrysin:MGO 1:5, incubation 48 h
[31] = chrysin:MGO 1:10, incubation 1 h
[32] = chrysin:MGO 1:10, incubation 3 h
[33] = chrysin:MGO 1:10, incubation 6 h
[34] = chrysin:MGO 1:10, incubation 12 h
[35] = chrysin:MGO 1:10, incubation 12 h, listed as CS
[36] = chrysin:MGO 1:10, incubation 36 h
[37] = chrysin:MGO 1:10, incubation 48 h
[38] = chrysin:MGO 1:10, incubation 48 h, listed as CS
[39] = chrysin:MGO 1:10, incubation 48 h, listed as chrysin

## COc1cc(OC)c2c(=O)cc(-c3ccccc3)oc2c1 [5,7-Di-O-methoxychrysin, 5,7-di-O-methoxychrysin]
[1]
  IC50: 39.9 µM
[2]
  solubility at 1 h: 11 µM (≈ 3.11 µg/mL)
[3]
  IC50: 41.8 µM
[4]
  IC50: 7.88 µM
  inhibitory activity on Amadori compound formation, fold higher than positive control AG: 13.92 fold

## CC(=O)Oc1cc(O)c2c(=O)cc(-c3ccccc3)oc2c1 [7-O-Acetylchrysin, 7-O-acetylchrysin]
[1]
  IC50: > 2000 µM
[2]; relative to CS
  water solubility, fold higher than CS: 2.87 fold
[2]
  solubility at 1 h: 86 µM (≈ 25.5 µg/mL)
[3]
  IC50: 21.6 µM
[4]
  IC50: 23.5 µM
  inhibitory activity on Amadori compound formation, fold higher than positive control AG: 4.66 fold

## COc1cc(O)c2c(=O)cc(-c3ccccc3)oc2c1 [7-O-Methoxychrysin, 7-O-methoxychrysin]
[1]
  IC50: > 2000 µM
[2]
  solubility at 1 h: 10 µM (≈ 2.68 µg/mL)
[3]
  IC50: > 200 µM
[4]
  IC50: > 31000 µM
[4]; up to a concentration of 10.0 mg/mL
  inhibitory activity on Amadori compound formation: no inhibitory activities

## CC(C)=CCOc1cc(O)c2c(=O)cc(-c3ccccc3)oc2c1 [7-O-Prenylchrysin, 7-O-prenylchrysin]
[2]
  solubility at 1 h: 9 µM (≈ 2.9 µg/mL)

## N=C(N)NN [Aminoguanidine, Aminoguanidine hydrochloride, reference compound]
[1]
  IC50: 1900 µM
[3]
  IC50: 137 µM
[4]
  IC50: 110 µM

## O=c1cc(-c2ccccc2)oc2cc(O)cc(O)c12 [Chrysin, 5,7-dihydroxyflavone]
[1]
  IC50: > 2000 µM
[1]; at a concentration of 10.0 mg/mL
  inhibitory activity against AGEs cross-linking: no inhibitory activities
[2]
  solubility at 1 h: 30 µM (≈ 7.63 µg/mL)
[5]; [7]
  HPLC area percentage of chrysin-di-MGO adduct: 0.0%
  HPLC area percentage of chrysin-mono-MGO adduct: 1.7%
[5]; [8]
  HPLC area percentage of chrysin-di-MGO adduct: 0.1%
  HPLC area percentage of chrysin-mono-MGO adduct: 2.9%
[5]; [9]
  HPLC area percentage of chrysin-di-MGO adduct: 0.1%
  HPLC area percentage of chrysin-mono-MGO adduct: 4.0%
[5]; [10]
  HPLC area percentage of chrysin-di-MGO adduct: 0.2%
  HPLC area percentage of chrysin-mono-MGO adduct: 7.6%
[5]; chrysin:MGO 1:0.1, incubation 12 h, listed as CS
  HPLC area percentage of chrysin-mono-MGO adduct: 8%
[5]; [11]
  HPLC area percentage of chrysin-di-MGO adduct: 1.1%
  HPLC area percentage of chrysin-mono-MGO adduct: 19.9%
[5]; [12]
  HPLC area percentage of chrysin-di-MGO adduct: 2.9%
  HPLC area percentage of chrysin-mono-MGO adduct: 27.2%
[5]; [13]
  HPLC area percentage of chrysin-di-MGO adduct: 0.0%
  HPLC area percentage of chrysin-mono-MGO adduct: 4.1%
[5]; [14]
  HPLC area percentage of chrysin-di-MGO adduct: 0.2%
  HPLC area percentage of chrysin-mono-MGO adduct: 7.7%
[5]; [15]
  HPLC area percentage of chrysin-di-MGO adduct: 0.5%
  HPLC area percentage of chrysin-mono-MGO adduct: 13.1%
[5]; [16]
  HPLC area percentage of chrysin-di-MGO adduct: 1.1%
  HPLC area percentage of chrysin-mono-MGO adduct: 21.4%
[5]; chrysin:MGO 1:0.5, incubation 12 h, listed as CS
  HPLC area percentage of chrysin-mono-MGO adduct: 21%
[5]; [17]
  HPLC area percentage of chrysin-di-MGO adduct: 4.1%
  HPLC area percentage of chrysin-mono-MGO adduct: 36.5%
[5]; [18]
  HPLC area percentage of chrysin-di-MGO adduct: 7.6%
  HPLC area percentage of chrysin-mono-MGO adduct: 45.8%
[5]; [19]
  HPLC area percentage of chrysin-di-MGO adduct: 0.1%
  HPLC area percentage of chrysin-mono-MGO adduct: 5.0%
[5]; [20]
  HPLC area percentage of chrysin-di-MGO adduct: 0.3%
  HPLC area percentage of chrysin-mono-MGO adduct: 10.8%
[5]; [21]
  HPLC area percentage of chrysin-di-MGO adduct: 0.7%
  HPLC area percentage of chrysin-mono-MGO adduct: 18.1%
[5]; [22]
  HPLC area percentage of chrysin-di-MGO adduct: 1.5%
  HPLC area percentage of chrysin-mono-MGO adduct: 29.5%
[5]; chrysin:MGO 1:1, incubation 12 h, listed as CS
  HPLC area percentage of chrysin-mono-MGO adduct: 30%
[5]; [23]
  HPLC area percentage of chrysin-di-MGO adduct: 6.4%
  HPLC area percentage of chrysin-mono-MGO adduct: 45.1%
[5]; [24]
  HPLC area percentage of chrysin-di-MGO adduct: 11.6%
  HPLC area percentage of chrysin-mono-MGO adduct: 55.0%
[5]; [25]
  HPLC area percentage of chrysin-di-MGO adduct: 0.3%
  HPLC area percentage of chrysin-mono-MGO adduct: 12.4%
[5]; [26]
  HPLC area percentage of chrysin-di-MGO adduct: 0.8%
  HPLC area percentage of chrysin-mono-MGO adduct: 19.0%
[5]; [27]
  HPLC area percentage of chrysin-di-MGO adduct: 1.7%
  HPLC area percentage of chrysin-mono-MGO adduct: 26.7%
[5]; [28]
  HPLC area percentage of chrysin-di-MGO adduct: 3.6%
  HPLC area percentage of chrysin-mono-MGO adduct: 35.6%
[5]; chrysin:MGO 1:5, incubation 12 h, listed as CS
  HPLC area percentage of chrysin-mono-MGO adduct: 36%
[5]; [29]
  HPLC area percentage of chrysin-di-MGO adduct: 15.9%
  HPLC area percentage of chrysin-mono-MGO adduct: 49.1%
[5]; [30]
  HPLC area percentage of chrysin-di-MGO adduct: 25.2%
  HPLC area percentage of chrysin-mono-MGO adduct: 57.5%
[5]; [31]
  HPLC area percentage of chrysin-di-MGO adduct: 0.5%
  HPLC area percentage of chrysin-mono-MGO adduct: 11.9 ^a %
[5]; [32]
  HPLC area percentage of chrysin-di-MGO adduct: 1.0%
  HPLC area percentage of chrysin-mono-MGO adduct: 21.0%
[5]; [33]
  HPLC area percentage of chrysin-di-MGO adduct: 1.9%
  HPLC area percentage of chrysin-mono-MGO adduct: 31.9%
[5]; [34]
  HPLC area percentage of chrysin-di-MGO adduct: 5.7%
  HPLC area percentage of chrysin-mono-MGO adduct: 42.1%
[5]; [35]
  HPLC area percentage of chrysin-di-MGO adduct: 6%
  HPLC area percentage of chrysin-mono-MGO adduct: 42%
[5]; [36]
  HPLC area percentage of chrysin-di-MGO adduct: 17.3%
  HPLC area percentage of chrysin-mono-MGO adduct: 57.4%
[5]; [37]
  HPLC area percentage of chrysin-di-MGO adduct: 29.7%
  HPLC area percentage of chrysin-mono-MGO adduct: 63.9%
[5]; [38]
  HPLC area percentage of chrysin-di-MGO adduct: 30%
  HPLC area percentage of chrysin-mono-MGO adduct: 64%
[5]; [39]
  HPLC area percentage of chrysin-di-MGO adduct: 29.69%
  HPLC area percentage of chrysin-mono-MGO adduct: 63.86%
[5]; ratios shown in Table 2B
  CS–di MGO adduct formation across ratios: 0.2–3%
[3]
  IC50: 25 µM
[3]; relative to AG (IC50 = 136.79 μM)
  activity against AGE formation, fold higher than AG: 5.48 fold
[4]
  IC50: 17.4 µM
  inhibitory activity on Amadori compound formation, fold higher than positive control AG: 6.30 fold

## C[N+](C)(C)C[C@H](O)CC(=O)[O-] [L-carnitine]
[6]; oral administration
  bioavailability: 14–18%

## CC(=O)O[C@H](CC(=O)[O-])C[N+](C)(C)C [acetyl-L-carnitine]
[6]; in vivo, po
  bioavailability: 43%

— publication PMC6099615, “Anti-glycation, Carbonyl Trapping and Anti-inflammatory Activities of Chrysin Derivatives” (Molecules : A Journal of Synthetic Chemistry and Natural …, 2018)
